Patent EP2654730B1, “HIGH DRUG LOAD PHARMACEUTICAL FORMULATIONS COMPRISING DRONEDARONE AND ITS PHARMACEUTICALLY ACCEPTABLE SALTS” (KRKA, d.d., Novo mesto, priority 2010, dated 2012)
Counter-ions that a name gives are not always drawn.

Legend:
[1] = Specific surface area of dronedarone HCl particles (BET method); type: physicochemical; details: particles after crystallization and Jetmill MC-50 micronization
Excerpt: The specific surface area can be determined using the BET method.

[2] = Particle size d90 by laser light scattering (Malvern Mastersizer MS 2000); type: physicochemical; details: particles after crystallization and Jetmill MC-50 micronization
Excerpt: As used herein d90<x means that at least 90% by volume of the particles have a particle size below x. The particle size can be determined by laser light scattering for instance using a Malvern Mastersizer Apparatus MS 2000 equipped with a Hydro S dispersion unit. Silicon fluid F10 may be used as dispersion medium.

[3] = Dissolution test of Dronedarone HCl 400 mg tablets (Apparatus 2 paddle); type: physicochemical; details: at 60 minutes, paddle 75 rpm, 1000 ml Buffer Solution pH 4.5
Description: The dissolution profiles of several of the pharmaceutical compositions exemplified above are determined.
Dissolution conditions for Dronedarone HCl 400 mg tablets: • Apparatus: 2 - Paddle (USP and Ph. Eur.) • Rotation speed: 75 rpm • Medium: 1000 ml Buffer Solution pH 4.5
API 1 or API 2 was included in the pharmaceutical composition as disclosed in example 17.
The pharmaceutical compositions used in dissolution test shown in Figure 2 comprised different surfactants or no surfactant. The pharmaceutical compositions were prepared according to examples 16A-D, 17A and 18A by using API 1, API 2 or API 3.

[4] = aqueous media, pH 3-5 (maximal); cited from earlier work

| Structure (SMILES) | Specific surface area [1] [m^2/g] | Particle size d90 [2] [µm] | dissolution rate ([3]; compositions of examples 16A-D, 17A and 18A, compared with compositions prepared from API 2 or API 3) | dissolution rate ([3]; tablet composition of example 17, compared with same composition prepared from API 2) | solubility [4] [µg/mL] |
| --- | --- | --- | --- | --- | --- |
| CCCCc1oc2ccc(NS(C)(=O)=O)cc2c1C(=O)c1ccc(OCCCN(CCCC)CCCC)cc1.Cl [API 1] | 8.3 | 5.1 | substantial lower dissolution rate | substantial lower dissolution rate | – |
| CCCCc1oc2ccc(NS(C)(=O)=O)cc2c1C(=O)c1ccc(OCCCN(CCCC)CCCC)cc1 [dronedarone hydrochloride, N-(2-butyl-3-(p-(3-(dibutylamino)propoxy)benzoyl)-5-benzofuranyl)methanesulfonamide] | – | – | – | – | 1000 to 2000 |
| CCCCc1oc2ccc(NS(C)(=O)=O)cc2c1C(=O)c1ccc(OCCCN(CCCC)CCCC)cc1.Cl [API 2] | 6.2 | 7.1 | – | – | – |
| CCCCc1oc2ccc(NS(C)(=O)=O)cc2c1C(=O)c1ccc(OCCCN(CCCC)CCCC)cc1.Cl [API 3] | 6.0 | 7.4 | – | – | – |
